Source: patent publication US20230416262A1, “TRPML MODULATORS” (Casma Therapeutics, Inc., priority 2020, published 2023)

System: TFEB
Experiment: TFEB nuclear translocation assay
Format: cell-based
Conditions: Homo sapiens; HeLa wt or HeLa TRPML1 KO cells, treated for 2 hrs; ratio of nuclear to ring-region TFEB intensity
Method: For the TFEB nuclear translocation assay, HeLa wt or HeLa TRPML1 KO cells were plated at 2700 cells/well into black-walled, 384-well Cell carrier Ultra tissue culture treated plates in complete media and incubated overnight. The next day, cells are treated for 2 hrs with compounds and incubated at 37° C. Cells were then fixed for 30 minutes at room temperature in 4% final PFA and washed five times with 90 μL PBS. PBS is aspirated from the wells and the cells are blocked with 7.5 μL blocking buffer (1.1 PBS/Odyssey block buffer containing 0.1% triton x-100 and 1% goat serum). After 30-60 minutes of block, 7.5 μL of primary anti-TFEB (rabbit) antibody is added for a final dilution of 1:200 antibody in 15 μL blocking buffer. Plates are incubated overnight at 4° C. The following day, plates are washed again into PBS, 90 μL with 5 washes, all PBS is aspirated from the wells and the cells are incubated for 1 hr in 1:1000 goat-anti rabbit Alexa 488 secondary antibody, also containing 10 μg/mL Hoechst 33342. After the 1 hr RT incubation, plates are washed a final time into PBS, sealed with foil and imaged with an automated epifluorescence microscopy (PerkinElmer Operetta CLS). Four different fields were imaged per well using ×20 magnification for DAPI and FITC filter sets. Images were quantified using PerkinElmer Harmony software, briefly: apply flatfield correction (basic/advanced) for input images. Use the Find Nuclei building block with channel set at Hoechst to find the nuclei. Use the Find cytoplasm building block with channel set to Alexa 488 to find the cytoplasm. Use select cell region with Channel set at Alexa 488 and region of interest as Nuclei and define outer border at 0 μm and inner at 45 μm to cover complete nuclei. Use select cell region with Channel set at Alexa 488 and region of interest as ring region and define outer border at −5 μm and inner at 0 μm to define a ring around the nucleus. Use the find calculate intensity parameter to calculate intensity of the nuclear region and the ring region. Define results as Number of nuclei and ratio of A/B where A is Intensity of Nuclei and B is intensity of the ring region.

Row | SMILES | EC50 [µM]
1 | CN1CCC2(CC1)CN(S(=O)(=O)c1ccc(S(=O)(=O)N(C)C)cc1)c1ccccc12 [Compound I-84, N,N-dimethyl-4-({1′-methyl-1,2-dihydrospiro[indole-3,4′-piperidin]-1-yl}sulfonyl)benzene-1-sulfonamide] | ≥ 10
2 | O=S(=O)(c1cnc(-c2ccccc2)o1)N1CC2(CCCC2)c2ccccc21 [Compound I-39, 1′-[(2-phenyl-1,3-oxazol-5-yl)sulfonyl]-1′,2′-dihydrospiro[cyclopentane-1,3′-indole]] | ≥ 10
3 | O=S(=O)(Cc1ccc2c(c1)COCC2)N1CC2(CCCC2)c2ccccc21 [Compound I-34, 1′-[(3,4-dihydro-1H-2-benzopyran-7-yl)methanesulfonyl]-1′,2′-dihydrospiro[cyclopentane-1,3′-indole]] | 2.01 to 8
4 | CC(C)c1ccc(S(=O)(=O)N2CC3(CCCC3)c3ccccc32)cc1 [Compound I-4, 1′-[4-(propan-2-yl)benzenesulfonyl]-1′,2′-dihydrospiro[cyclopentane-1,3′-indole]] | 8.01 to 9.99
5 | Cc1ccc(S(=O)(=O)N2CC3(CCCC3)c3ccccc32)cc1 [Compound I-13, 1′-(4-methylbenzenesulfonyl)-1′,2′-dihydrospiro[cyclopentane-1,3′-indole]] | ≥ 10
6 | O=S(=O)(Cc1cccc(F)c1)N1CC2(CCCC2)c2ccccc21 [Compound I-25, 1′-[(3-fluorophenyl)methanesulfonyl]-1′,2′-dihydrospiro[cyclopentane-1,3′-indole]] | 2.01 to 8
7 | O=S(=O)(c1cc(C2OCCO2)cs1)N1CC2(CCCC2)c2ccccc21 [Compound I-21, 1′-{[4-(1,3-dioxolan-2-yl)thiophen-2-yl]sulfonyl}-1′,2′-dihydrospiro[cyclopentane-1,3′-indole]] | ≥ 10
8 | O=S(=O)(c1cnn(C2CCCCC2)c1)N1CC2(CCCC2)c2ccccc21 [Compound I-18, 1′-[(1-cyclohexyl-1H-pyrazol-4-y1)sulfonyl]-1′,2′-dihydrospiro[cyclopentane-1,3′indole]] | 2.01 to 8
9 | O=S(=O)(Cc1cccc(Cl)c1)N1CC2(CCCC2)c2ccccc21 [Compound I-46, 1′-[(3-chlorophenyl)methanesulfonyl]-1′,2′-dihydrospiro[cyclopentane-1,3′-indole]] | 2.01 to 8
10 | CS(=O)(=O)c1ccc(S(=O)(=O)N2CC3(CCCC3)c3ccccc32)cc1 [Compound I-9, 1′-(4-methanesulfonylbenzenesulfonyl)-1′,2′-dihydrospiro[cyclopentane-1,3′-indole]] | 2.01 to 8
11 | CN1CCC2(CC1)CN(S(=O)(=O)Cc1ccccc1)c1ccccc12 [Compound I-82, 1′-methyl-1-phenylmethanesulfonyl-1,2-dihydrospiro[indole-3,4′-piperidine]] | ≥ 10
12 | O=S(=O)(c1ccc2c(c1)COCC2)N1CC2(CCCC2)c2ccccc21 [Compound I-37] | 2.01 to 8
13 | Cc1ccc(CS(=O)(=O)N2CC3(CCCC3)c3ccccc32)cc1 [Compound I-12, 1′-[(4-methylphenyl)methanesulfonyl]-1′,2′-dihydrospiro[cyclopentane-1,3′-indole]] | ≥ 10
14 | O=S(=O)(c1cccc(C2CC2)c1)N1CC2(CCCC2)c2ccccc21 [Compound I-26, 1′-(3-cyclopropylbenzenesulfonyl)-1′,2′-dihydrospiro[cyclopentane-1,3′-indole]] | 2.01 to 8
15 | CN1Cc2cc(S(=O)(=O)N3CC4(CCCC4)c4ccccc43)ccc2OC1=O [Compound I-6, 6-({1′,2′-dihydrospiro[cyclopentane-1,3′-indol]-1′-yl}sulfonyl)-3-methyl-3,4-dihydro-2H-1,3-benzoxazin-2-one] | ≥ 10
16 | CC(C)(CO)c1ccc(S(=O)(=O)N2CC3(CCCC3)c3ccccc32)cc1 [Compound I-54, 2-[4-({1′,2′-dihydrospiro[cyclopentane-1,3′-indol]-1′-yl}sulfonyl)phenyl]-2-methylpropan-1-ol] | ≥ 10
17 | CN1Cc2cc(S(=O)(=O)N3CC4(CCCC4)c4ccccc43)ccc2C1=O [Compound I-55, 5-({1′,2′-dihydrospiro[cyclopentane-1,3′-indol]-1′-yl}sulfonyl)-2-methyl-2,3-dihydro-1H-isoindol-1-one] | ≥ 10
18 | O=S(=O)(C1=Cc2ccccc2OCC1)N1CC2(CCCC2)c2ccccc21 [Compound I-40, 1′-(2,3-dihydro-1-benzoxepine-4-sulfonyl)-1′,2′-dihydrospiro[cyclopentane-1,3′-indole]] | 2.01 to 8
19 | COC(C)(C)c1ccc(S(=O)(=O)N2CC3(CCCC3)c3ccccc32)cc1 [Compound I-56, 1′-[4-(2-methoxypropan-2-yl)benzenesulfonyl]-1′,2′-dihydrospiro[cyclopentane-1,3′-indole]] | ≥ 10
20 | Cc1cc(S(=O)(=O)N2CC3(CCCC3)c3ccccc32)ccc1F [Compound I-11, 1′-(4-fluoro-3-methylbenzenesulfonyl)-1′,2′-dihydrospiro[cyclopentane-1,3′-indole]] | ≥ 10
21 | COC(C)(C)c1cccc(S(=O)(=O)N2CC3(CCCC3)c3ccccc32)c1 [Compound I-60, 1′-[3-(2-methoxypropan-2-yl)benzenesulfonyl]-1′,2′-dihydrospiro[cyclopentane-1,3′-indole]] | 8.01 to 9.99
22 | O=S(=O)(c1cnn(C2CCC2)c1)N1CC2(CCCC2)c2ccccc21 [Compound I-17, 1′-[(1-cyclobutyl-1H-pyrazol-4-yl)sulfonyl]-1′,2′-dihydrospiro[cyclopentane-1,3′-indole]] | ≥ 10
23 | O=S(=O)(c1cccc(C2OCCO2)c1)N1CC2(CCCC2)c2ccccc21 [Compound I-27, 1′-[3-(1,3-dioxolan-2-yl)benzenesulfonyl]-1′,2′-dihydrospiro[cyclopentane-1,3′-indole]] | 2.01 to 8

The remaining lines, values ahead:

Row | EC50 [µM] | SMILES
24 | ≥ 10 | CN1CCC2(C1)CN(S(=O)(=O)Cc1ccccc1)c1ccccc12 (centres unmarked) [Compound I-88, 1′-methyl-1-phenylmethanesulfonyl-1,2-dihydrospiro[indole-3,3′-pyrrolidine]]
25 | ≥ 10 | CC(C)(O)c1cccc(S(=O)(=O)N2CC3(CCCC3)c3ccccc32)c1 [Compound I-61, 2-[3-({1′,2′-dihydrospiro[cyclopentane-1,3′-indol]-1′-yl}sulfonyl)phenyl]propan-2-ol]
26 | ≥ 10 | Cc1cc2n(n1)C1(CCCCC1)CN2S(=O)(=O)c1ccc2c(c1)C(C)(C)CO2 [Compound I-147, 1′-[(3,3-dimethyl-2,3-dihydro-1-benzofuran-5-yl)sulfonyl]-6′-methyl-1′,2′-dihydrospiro[cyclohexane-1,3′-pyrazolo[1,5-a]imidazole]]
27 | ≥ 10 | COC(=O)c1ccc(CS(=O)(=O)N2CC3(CCCC3)c3ccccc32)cc1 [Compound I-62, methyl 4-[({1′,2′-dihydrospiro[cyclopentane-1,3′-indol]-1′-yl}sulfonyl)methyl]benzoate]
28 | ≥ 10 | CN(C)S(=O)(=O)c1ccc(S(=O)(=O)N2CC3(CCCC3)c3cnccc32)cc1 [Compound I-70, 4-({1′,2′-dihydrospiro[cyclopentane-1,3′-pyrrolo[3,2-c]pyridin]-1′-yl}sulfonyl)-N,N-dimethylbenzene-1-sulfonamide]
29 | ≥ 10 | CC(c1ccc(S(=O)(=O)N(C)C)cc1)N1CC2(CCCCC2)c2ccccc21 (centres unmarked) [Compound I-150, 4-(1-{1′,2′-dihydrospiro[cyclohexane-1,3′-indol]-1′-yl}ethyl)-N,N-dimethylbenzene-1-sulfonamide]
30 | 2.01 to 8 | CC1(C)OCc2cc(S(=O)(=O)N3CC4(CCCC4)c4ccccc43)ccc21 [Compound I-66, 1′-((1,1-dimethyl-1,3-dihydroisobenzofuran-5-yl)sulfonyl)spiro[cyclopentane-1,3′-indoline]]
31 | ≤ 2 | CN(C)S(=O)(=O)c1ccc(S(=O)(=O)N2CC3(CCCO3)c3ccccc32)cc1 (centres unmarked) [Compound I-77, 4-({1,2-dihydrospiro[indole-3,2′-oxolan]-1-yl}sulfonyl)-N,N-dimethylbenzene-1-sulfonamide]
32 | ≥ 10 | CN1CCC2(C1)CN(S(=O)(=O)c1ccc(C(F)F)cc1)c1ccccc12 (centres unmarked) [Compound I-89]
33 | ≤ 2 | CS(=O)(=O)c1ccc(S(=O)(=O)N2CC3(CCN(c4ccc(Cl)cc4F)CC3)c3ccccc32)cc1 [Compound I-65, 1′-(4-chloro-2-fluorophenyl)-1-((4-(methylsulfonyl)phenyl)sulfonyl)spiro[indoline-3,4′-piperidine]]
34 | ≤ 2 | CN(C)S(=O)(=O)c1ccc(S(=O)(=O)N2CC3(CCN(CC(F)(F)F)C3)c3ccccc32)cc1 (centres unmarked) [Compound I-93, N,N-dimethyl-4-{[1′-(2,2,2-trifluoroethyl)-1,2-dihydrospiro[indole-3,3′-pyrrolidin]-1-yl]sulfonyl}benzene-1-sulfonamide]
35 | 2.01 to 8 | O=S(=O)(c1ccc2c(c1)OC1(CCC1)O2)N1CC2(CCCC2)c2ccccc21 [Compound I-64, 1′-({spiro[1,3-benzodioxole-2,1′-cyclobutan]-6-yl}sulfonyl)-1′,2′-dihydrospiro[cyclopentane-1,3′-indole]]
